Counter-ions that a name gives are not always drawn.
Legend:
Format in all cases: in vivo
[1] = test system: common barnyardgrass (Echinochloa crus-galli); assay: Herbicidal effect, foliar spray pot test (Example 349); conditions: sprayed 21 days after seeding, evaluated after 4 days, rating 0 to 100
Procedure: (§1) The formulation (1-41) was produced in the same manner as in Example 348.
(§2) After filling a plastic pot with soil, common barnyardgrass (Echinochloa crus-galli) and Italian ryegrass (Lolium multiflorum) were seeded therein and grown in a greenhouse. The weeds were then cultivated in the greenhouse, and 21 days after seeding, a spray liquid containing the formulation (1-41) and/or EnlistOne (670 g/L of 2,4-D choline salt, manufactured by Dow AgroSciences) prepared so that the application rate of the compound (I-41) might be 20 g/ha and the application rate of EnlistOne might be 798 g/ha as an equivalent of 2,4-D choline salt (1.754 L/ha (24 fluid ounce/acre) as […]) was uniformly sprayed above the pot using a spraying machine so that the spray liquid amount might be 218 L/ha. Thereafter, the weeds were grown in the greenhouse for 4 days and the herbicidal effect was evaluated.
(§3) From the results of the herbicidal effect (value of A or B) for the single use of each of the compounds, the expected value of the herbicidal effect when the compounds were combined was determined according to the Colby's equation: […]

[2] = test system: Italian ryegrass (Lolium multiflorum); assay: as above; conditions: sprayed 21 days after seeding, evaluated after 4 days, rating 0 to 100
Procedure: as §1, §2, §3

[3] = test system: common barnyardgrass (Echinochloa crus-galli); assay: Herbicidal effect, foliar spray pot test (Example 347); conditions: sprayed 17 days after seeding, evaluated after 4 days, rating 0 to 100
Procedure: (§4) The formulation (I-15) was produced in the same manner as in Example 346.
(§5) After filling a plastic pot with soil, common barnyardgrass (Echinochloa crus-galli) and Italian ryegrass (Lolium multiflorum) were seeded therein and grown in a greenhouse. The weeds were then cultivated in the greenhouse, and 17 days after seeding, a spray liquid containing the formulation (1-15) and/or Xtendimax (350 g/L of dicamba diglycolamine salt, manufactured by Monsanto Company) prepared so that the application rate of the compound (I-15) might be 20 g/ha and the application rate of Xtendimax might be 560 g/ha as an equivalent of dicamba acid (1.608 L/ha (22.0 fluid ounce/acre) as Xtendimax) was uniformly sprayed above the pot using a spraying machine so that the spray liquid amount might be 218 L/ha. Thereafter, the weeds were grown in the greenhouse for 4 days and the herbicidal effect was evaluated.
as §3

[4] = test system: Italian ryegrass (Lolium multiflorum); assay: as above; conditions: sprayed 17 days after seeding, evaluated after 4 days, rating 0 to 100
Procedure: as §4, §5, §3

[5] = test system: common barnyardgrass (Echinochloa crus-galli); assay: Herbicidal effect, foliar spray pot test (Example 346); conditions: sprayed 17 days after seeding, evaluated after 4 days, rating 0 to 100
Procedure: (§6) The compound (I-15) (55 mg), 76.5 mg of Emulsogen TS290 (polyoxyethylene tristyryl phenyl ether, manufactured by Clariant) and 76.5 mg of Phenylsulfonat CAL (mixture of 70% calcium dodecylbenzenesulfonate and 30% iso-butanol, manufactured by Clariant) were dissolved in Solvesso 200ND (aromatic hydrocarbon, manufactured by Exxon Mobile Corporation) to make 1 ml in total, thus producing an emulsifiable concentrate (hereinafter referred to as formulation (I-15)).
(§7) After filling a plastic pot with soil, common barnyardgrass (Echinochloa crus-galli) and Italian ryegrass (Lolium multiflorum) were seeded therein and grown in a greenhouse. The weeds were then cultivated in the greenhouse, and 17 days after seeding, a spray liquid containing the formulation (1-15) and/or Roundup PowerMax (660 g/L of glyphosate potassium salt, manufactured by Monsanto Company) prepared so that the application rate of the compound (I-15) might be 20 g/ha and the application rate of Roundup PowerMax might be 1262 g/ha as an equivalent of glyphosate acid (2.338 L/ha (32 fluid ounce/acre) as Roundup PowerMax) was uniformly sprayed above the pot using a spraying machine so that the spray liquid amount may be 218 L/ha. Thereafter, the weeds were grown in the greenhouse for 4 days and the herbicidal effect was evaluated.
as §3

[6] = test system: Italian ryegrass (Lolium multiflorum); assay: as above; conditions: sprayed 17 days after seeding, evaluated after 4 days, rating 0 to 100
Procedure: as §6, §7, §3

[7] = test system: weeds; assay: Examples 1 to 23 with compound (I-15) replaced by another compound (I) (Examples 24 to 115); conditions: as Examples 1 to 23 with compound (I-15) replaced; used with pyroxasulfone, saflufenacil, flumioxazin and/or glyphosate-potassium salt; crop soybean, corn or cotton
[8] = test system: common barnyardgrass (Echinochloa crus-galli); assay: Herbicidal effect, foliar spray pot test (Example 348); conditions: sprayed 17 days after seeding, evaluated after 4 days, rating 0 to 100
Procedure: (§8) The compound (I-41) (55 mg), 76.5 mg of Emulsogen TS290 (polyoxyethylene tristyryl phenyl ether, manufactured by Clariant) and 76.5 mg of Phenylsulfonat CAL (mixture of 70% calcium dodecylbenzenesulfonate and 30% iso-butanol, manufactured by Clariant) were dissolved in Solvesso 200ND (aromatic hydrocarbon, manufactured by Exxon Mobile Corporation) to make 1 ml in total, thus producing an emulsifiable concentrate (hereinafter referred to as formulation (I-41)).
(§9) After filling a plastic pot with soil, common barnyardgrass (Echinochloa crus-galli) and Italian ryegrass (Lolium multiflorum) were seeded therein and grown in a greenhouse. The weeds were then cultivated in the greenhouse, and 17 days after seeding, a spray liquid containing the formulation (1-41) and/or Liberty (280 g/L of glufosinate ammonium salt, manufactured by Bayer) prepared so that the application rate of the compound (I-41) might be 20 g/ha and the application rate of Liberty might be 594 g/ha as glufosinate ammonium salt (2.12 L/ha (29.0 fluid ounce/acre) as Liberty) was uniformly sprayed above the pot using a spraying machine so that the spray liquid amount might be 218 L/ha. Thereafter, the weeds were grown in the greenhouse for 4 days and the herbicidal effect was evaluated.
as §3

[9] = test system: Italian ryegrass (Lolium multiflorum); assay: as above; conditions: sprayed 17 days after seeding, evaluated after 4 days, rating 0 to 100
Procedure: as §8, §9, §3

[10] = 2,4-D choline salt 798 g/ha (EnlistOne) alone
[11] = compound (I-15) 20 g/ha alone, 218 L/ha
[12] = compound (I-41) 20 g/ha alone, 218 L/ha
[13] = dicamba diglycolamine salt 560 g/ha (dicamba acid equivalent, Xtendimax) alone
[14] = glufosinate ammonium salt 594 g/ha (Liberty) alone
[15] = glyphosate potassium salt 1,262 g/ha (glyphosate acid equivalent, Roundup PowerMax) alone

**Q.** What does the source list for `C[N+](C)(C)CCO.O=C([O-])COc1ccc(Cl)cc1Cl` [2,4-D choline salt, reference compound]?
**A.** Herbicidal effect Observed value [1, 10]: 10; Herbicidal effect Observed value [2, 10]: 5

**Q.** With `COC(=O)C(C)OC(=O)C1(Oc2cc(-n3c(=O)cc(C(F)(F)F)n(C)c3=O)c(F)cc2Cl)CC1` (centres unmarked) [Compound (I-15)] as the compound, how does the “Herbicidal effect Observed value” [3, 11] read?
**A.** 70

**Q.** What about the “Herbicidal effect Observed value” [4, 11] of the same compound?
**A.** 20

**Q.** What about the “Herbicidal effect Observed value” [5, 11] of the same compound?
**A.** 70

**Q.** And the “Herbicidal effect Observed value” [6, 11]?
**A.** 20

**Q.** How did the “weed control effect compared to the single use of each of the compounds” value [7] turn out when `CCOC(=O)C(C)OC(=O)C1(Oc2cc(-n3c(=O)cc(C(F)(F)F)n(C)c3=O)c(F)cc2Cl)CC1` (centres unmarked) [Compound (I-29)] was run?
**A.** synergistic weed control effect

**Q.** With `CCOC(=O)C(C)(C)OC(=O)C1(Oc2cc(-n3c(=O)cc(C(F)(F)F)n(C)c3=O)c(F)cc2Cl)CC1` [Compound (I-30)] as the compound, how does the “weed control effect compared to the single use of each of the compounds” value [7] read?
**A.** synergistic weed control effect

**Q.** `CCOC(=O)C(CC)OC(=O)C1(Oc2cc(-n3c(=O)cc(C(F)(F)F)n(C)c3=O)c(F)cc2Cl)CC1` (centres unmarked) [Compound (I-33)] was tested. Which “weed control effect compared to the single use of each of the compounds” value [7] did it give?
**A.** synergistic weed control effect

**Q.** How did the “Herbicidal effect Observed value” [1, 12] turn out when `CCOC(=O)C1(OC(=O)C2(Oc3cc(-n4c(=O)cc(C(F)(F)F)n(C)c4=O)c(F)cc3Cl)CC2)CC1` [Compound (I-41)] was run?
**A.** 70

**Q.** And the “Herbicidal effect Observed value” [2, 12]?
**A.** 20

**Q.** And the “weed control effect compared to the single use of each of the compounds” value [7]?
**A.** synergistic weed control effect

**Q.** And the “Herbicidal effect Observed value” [8, 12]?
**A.** 50

**Q.** And the “Herbicidal effect Observed value” [9, 12]?
**A.** 20

**Q.** Which “Herbicidal effect Observed value” [3, 13] does the source give for `COc1c(Cl)ccc(Cl)c1C(=O)O.NCCOCCO` [Dicamba diglycolamine salt, dicamba diglycolamine salt, reference compound] here?
**A.** 5

**Q.** And the “Herbicidal effect Observed value” [4, 13]?
**A.** 0

**Q.** How did the “Herbicidal effect Observed value” [8, 14] turn out when `CP(=O)(O)CCC(N)C(=O)O` (centres unmarked) [Glufosinate ammonium salt, glufosinate ammonium salt, reference compound] was run?
**A.** 70

**Q.** What about the “Herbicidal effect Observed value” [9, 14] of the same compound?
**A.** 40

**Q.** For `O=C(O)CNCP(=O)(O)O` [Glyphosate potassium salt, reference compound], which “Herbicidal effect Observed value” [5, 15] is on record?
**A.** 30

**Q.** What about the “Herbicidal effect Observed value” [6, 15] of the same compound?
**A.** 10

From patent US20250318528A1, “HERBICIDE COMPOSITION AND WEED CONTROLLING METHOD” (SUMITOMO CHEMICAL COMPANY, LIMITED, priority 2022, published 2025)
